Values of other authors, collected in US5900412A, “Percutaneous/transdermal delivery of ASA and antithrombotic therapies based thereon” (Luitpold Pharma GmbH, priority 1996, dated 1999).

Assays:
[1] = system: cyclooxygenase

CC(=O)Oc1ccccc1C(=O)O [ASA, acetylsalicylic acid]
absolute bio-availability of ASA (following peroral administration): 50%-70
metabolism of ASA to SA (in words) (gastrointestinal fluids, absorption in stomach and intestine, blood plasma): rapidly metabolized to its principal metabolite SA
acetylation and inactivation of cyclooxygenase (in words) [1]: irreversible acetylation, and consequently prolonged inactivation, of cyclooxygenase
duration of inhibition of thromboxane synthesis (life of the thrombocytes) ([1]; blood platelets): 1 month
